Laboratory results: patent US20160113940A1, “METHODS OF TREATING BIOFILMS” (BIOMIMETIX J.V., LLC, priority 2013, published 2016)

Experiments:
[1] = test system: Biofilm forming Staphylococcus Aureus
Description: A total of 20 C57B5 male mice were randomly divided into four treatment groups after surgery to create an infected femur fracture (midshaft femur fracture fixed with intramedullary 23 g needle and with 10^4 S. aureus added to the fracture site):
2. Antibiotic (Keflex) starting 24 hours post-surgery,
3. SOD mimetic MnTE-2-PyP (starting 24 hours post-surgery,
4. Antibiotic plus MnTE-2-PyP (starting 24 hours post-surgery).
The mice were followed for 2 weeks and received daily access to Keflex in drinking water at […] dose for the antibiotic treated groups and MnTE three time per week (loading dose day 1=5.0 mg/kg SQ, followed by 2.5 mg/kg SQ three times weekly). […] Mice were harvested after 2 weeks and femurs were homogenized in PBS, supernatants were serially diluted and plated to determine cell counts.

[2] = test system: Biofilm forming S. aureus; experiment: Inhibition of Staphylococcus aureus biofilm formation in vitro (96 well plates, absorbance at 600 nm); format: cell-based; details: established 24 h biofilm, 24 hours further growth after treatment, vs PBS; p<0.0001; FIG. 1
Description: Biofilm forming S. aureus was grown in 96 well plates for 24 hours to allow a biofilm to form. Wells were allowed to grow an additional 24 hours after being treated with either PBS or SOD mimetic (Mn (III) tetrakis (N-ethylpyridinium-2-yl) porphyrin, or “MnTE-PyP”). Biofilm intensity was measured using absorbance at 600 nm. […] (p<0.0001)

Compound	Fracture healing compared to no treatment ([1]; infected femur fracture, 2 wks, FIG. 3)	Biofilm intensity (absorbance at 600 nm) [2]	Mortality ([1]; initial post-operative period, mimetic only group, not felt to be related to the compound)
CC1=C(C(=O)O)N2C(=O)[C@@H](NC(=O)[C@H](N)c3ccccc3)[C@H]2SC1 [Keflex, reference compound]	significantly improved fracture healing		
CC[n+]1ccccc1-c1c2nc(c(-c3cccc[n+]3CC)c3ccc([n-]3)c(-c3cccc[n+]3CC)c3nc(c(-c4cccc[n+]4CC)c4ccc1[n-]4)C=C3)C=C2.[Mn+3] [MnTE-2-PyP, Mn (III) tetrakis (N-ethylpyridinium-2-yl) porphyrin]		disrupts established S. aureus biofilms in culture	one mouse died
